From the supplement of paper PMC11919725

Experiments:
[1] = system: Jurkat; assay: confluency relative to DMSO, 18 h (ratio); higher = more viable
Procedure, shortened: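 Naive or CD3/CD28 Dynabead-activated (48 h) primary CD4+/CD8+ T cells, or Jurkat cells, received compound at 1 nM–10 µM for 18 h at 37 °C. Confluency was measured by IncuCyte phase-contrast imaging with the Basic Analyzer and normalised to the mean of the control wells. Imaging used 100 µl of suspension per well in 96-well plates with IncuCyte Cytotox Dye and alamarBlue, at ×10 with five images per well every hour for 3 h.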

[2] = system: Jurkat; assay: metabolic activity relative to DMSO, 18 h (ratio); higher = more viable
Procedure, shortened: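 Naive or CD3/CD28 Dynabead-activated (48 h) primary CD4+/CD8+ T cells, or Jurkat cells, received compound at 1 nM–10 µM for 18 h. Readout used alamarBlue at 10% v/v final, with fluorescence taken after 3.5 h. Metabolic activity is given relative to mean vehicle control values.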

[3] = system: Jurkat; assay: cytotoxicity relative to DMSO, 18 h (ratio); higher = less cell death (drugs called cytotoxic fall below 1)
Procedure, shortened: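 Cytotoxicity was measured by IncuCyte fluorescence imaging after confluency correction and normalisation to mean control values. Cells (Jurkat, or primary CD4+/CD8+ T cells that were naive or pre-activated 48 h with CD3/CD28 Dynabeads) received compound at 1 nM–10 µM in log10 steps for 18 h at 37 °C, 5% CO2. Imaging used ×10 magnification, five images per well, taken hourly over 3 h in 96-well plates with 250 nM final IncuCyte Cytotox Dye in 100 µl of suspension.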

SMILES | confluency ([1]; 1 nM) | confluency ([1]; 10 nM) | confluency ([1]; 100 nM) | confluency ([1]; 1000 nM) | confluency ([1]; 10000 nM) | metabolic activity ([2]; 1 nM) | metabolic activity ([2]; 10 nM) | metabolic activity ([2]; 100 nM) | metabolic activity ([2]; 1000 nM) | metabolic activity ([2]; 10000 nM) | cytotoxicity ([3]; 1 nM) | cytotoxicity ([3]; 10 nM) | cytotoxicity ([3]; 100 nM) | cytotoxicity ([3]; 1000 nM) | cytotoxicity ([3]; 10000 nM)
O=C(Nc1cccc(Cl)c1)Nc1ncc(CCNc2ncnc3ccsc23)s1 [SNS-314] | 0.951 | 0.963 | 0.974 | 0.907 | 0.78 | 0.955 | 0.945 | 0.979 | 0.909 | 0.797 | 0.951 | 0.912 | 0.92 | 0.832 | 0.733
Cc1nc(-c2cccnc2)sc1C(=O)Nc1ccccc1-c1cn2c(CN3CCOCC3)csc2n1 [SRT2104] | 1.06 | 1.02 | 1.05 | 1.04 | 0.971 | 1.03 | 1.01 | 1.03 | 1.03 | 0.982 | 1.13 | 1.06 | 1.13 | 1.11 | 1.05
CCC(CO)Nc1nc(NCc2ccccc2)c2ncn(C(C)C)c2n1 (stereo not given) [Seliciclib] | 1.03 | 0.968 | 0.924 | 0.977 | 0.943 | 0.994 | 0.987 | 0.945 | 0.962 | 1.03 | 1.02 | 0.922 | 0.883 | 0.948 | 0.957
NC(=O)C1CCCc2c1[nH]c1ccc(Cl)cc21 (stereo not given) [Selisistat] | 0.962 | 0.984 | 0.973 | 0.992 | 0.992 | 1.06 | 1.02 | 0.995 | 1.09 | 1.05 | 0.974 | 0.979 | 0.932 | 1.09 | 0.974
Cn1cnc2c(F)c(Nc3ccc(Br)cc3Cl)c(C(=O)NOCCO)cc21 [Selumetinib] | 0.985 | 0.965 | 0.988 | 0.983 | 0.974 | 1.05 | 1.04 | 1.03 | 1.03 | 1.07 | 1.01 | 0.984 | 1.06 | 1.02 | 0.959
c1ccc2c(CCNc3ccc(Nc4ccncc4)cc3)c[nH]c2c1 [Serdemetan] | 1.02 | 1.02 | 1.06 | 1.04 | 0.841 | 1.04 | 0.963 | 0.905 | 0.863 | 0.816 | 1.08 | 1.1 | 1.21 | 1.06 | 0.829
CNC1CC2OC(C)(C1OC)n1c3ccccc3c3c4c(c5c6ccccc6n2c5c31)C(=O)NC4 (stereo not given) [Staurosporine] | 0.829 | 0.908 | 0.897 | 0.964 | 0.876 | 0.916 | 1.06 | 0.979 | 1.02 | 0.995 | 0.826 | 0.955 | 0.959 | 1.04 | 0.913
